Ten molecules from US9945853B2, “Extracellular mitochondrial components for detecting inflammatory reactions and conditions” (UNIVERSITE LAVAL, priority 2013, dated 2018) can be followed below.

For one test, the system named is platelets. The experiment in a line: Platelet stimulation and release of freeMitos, mitoMPs and MPs (hs-FCM). The conditions noted are these: platelets stimulated 4 hours at room temperature, vs supernatant from resting platelets, n=4. In kind it is cell-based, human. From the text: (§1) A forward scatter (FSC) coupled to a photomultiplier tube (PMT) “small particles option” (FSC-PMT) (rather than the usual diode) with a 488-nm solid state, 100-mW output blue laser (rather than the conventional 20 mW), a 633-nm HeNe, 20-mW output red laser, and a 405-nm solid state diode, 50-mW output violet laser were mounted on the BD FACS Canto II Special Order Research Product used for all our studies (BD Biosciences). The chosen parameters were optimal to detect particles from 100 to 3 500 nm simultaneously on the FSC-PMT.
(§2) Platelets were labeled with MitoTracker Deep Red™ and PKH67 Green Fluorescent Cell Linker as described above. Platelets were washed and then were left nonactivated or activated using heat-aggregated immunoglobulin (Ig)G (HA-IgG), 1 mg/mL; thrombin, 0.5 U/mL; collagen, 5 μg/mL; for 4 hours at room temperature. Platelets ([…]) were then diluted into […] phosphate-buffered saline (PBS) and analyzed by flow cytometry. For extracellular mitochondria release experiments, platelets were treated with cytochalasin B ([…]; Sigma-Aldrich), cytochalasin D ([…]; Sigma-Aldrich), cytochalasin E ([…]; Cayman Chemical), latrunculin A ([…]; Cayman Chemical), or nocodazole ([…]; Sigma-Aldrich). To process the data quantitatively, 100 000 polystyrene microspheres ([…] diameter; Polysciences) were added to each tube, and 1000 microspheres were acquired.

The test system of test [1] is human neutrophils. The experiment in a line: NET quantification. The test is classed as cell-based. The method, then: Activated human neutrophils (5×10^6 cells/ml) were incubated in the presence of labeled mitochondria (5×10^5 mitochondria/ml, MitoTracker® Deep Red, 100 nm) and sPLA2-IIA (0.1 μg/ml) or diluent (PBS) for 2 h at 37° C. Cells were then fixed with 2% PFA and DNA staining was performed with Hoestch 33342 (1 μg/ml, Invitrogen). Cells were cytospinned on a slide at 500 RPM for 3 min. NET formation (%) was determined by the following equation: (NETs/PMN counted)*100. Preliminary experiments confirmed that mtDNA is readily distinguished from neutrophils NETs.

For test [2], the system named is thrombin-activated platelets. The experiment in a line: Extracellular mitochondria release from thrombin-activated platelets with cytoskeleton inhibitors (hs-FCM). The test is classed as cell-based, human. The following applies: addition of actin or tubulin polymerization inhibitors, n=4.
Description: as §1, §2

The subject of test [3] is human neutrophils. The experiment in a line: Stimulation of neutrophils for leukotriene generation (5-LO products, HPLC). The test is classed as cell-based. The conditions noted are these: human neutrophils with extracellular mitochondria and sPLA2-IIA; pyrrophenone 100 nM. On the procedure: Human neutrophils were primed and stimulated for leukotriene biosynthesis as previously described (Cloutier et al. 2013, Flamand et al. 2006). To evaluate sPLA2-IIA mediated release of arachidonic acid, cPLA2α inhibitor pyrrophenone (100 nM) was added 5 min before stimulation. Stimulation was initiated by the addition of 5 μl of pre-treated mitochondria, or control, to prime neutrophils. The reaction was stopped by the addition of 500 μl of cold MeOH:CH3CN (1:1) containing 12.5 ng of prostaglandin B2 as internal standard. Samples were then processed and analyzed by reversed-phase high performance liquid chromatography using on-line extraction as previously described (Borgeat et al. 1990).

The next test deals with mitochondrial membranes. The experiment in a line: Mass spectrometry of lysophospholipids and fatty acids released from mitochondrial membranes by sPLA2-IIA. In kind it is biochemical, mouse. The following applies: 0.1 and 1 μg/ml sPLA2-IIA, 37° C., 0.5 and 6 h. The method, then:
Mitochondria were incubated in the presence of 0.1 μg/ml and 1 μg/ml of human recombinant sPLA2-IIA at 37° C. for 0.5 and 6 h. Mitochondria were also incubated in the absence of sPLA2-IIA to determine the content of basal free fatty acid. Following incubation, the reaction was stopped with the addition of 20 mM of EGTA. Lysophospholipid analysis by mass spectrometry was carried out as described (Bollinger et al. 2010). Samples of sPLA2-IIA-treated mitochondria (200 μl) was mixed with 800 μl of chloroform/methanol (2/1) followed by the addition of 15 μl of internal standard mixture (Bollinger et al. 2010 B). Samples were extracted as described and analyzed by combined liquid chromatography/tandem mass spectrometry (Bollinger et al. 2010). Fatty acids were analyzed by conversion to their AMPP amide derivatives and then analyzed by combined liquid chromatography/tandem mass spectrometry.

Test [4] deals with mitochondria. The experiment in a line: sPLA2-IIA binding to mitochondria (flow cytometry, anti-TOM22 co-elution and immunoblot). The conditions noted are these: 30 min on ice, 5 mM CaCl2. Set-up: species or system mouse. On the procedure:
Mitochondria (10^6) from mouse liver were labeled with 100 nM of MitoTracker® Deep Red and incubated with 10 ng of sPLA2-IIA Alexa Fluor 488 (final volume 10 μl) in HBSS with 5 mM of CaCl2 for 30 min on ice. Samples were diluted and the presence of sPLA2-IIA Alexa Fluor 488 on fluorescent mitochondria was analyzed by flow cytometry.
Interaction between mitochondria and sPLA2-IIA was also assessed by immunolabeling and co-elution. Unstained mouse liver mitochondria (10^7) in HBSS with 5 mM CaCl2 were incubated with 250 ng of sPLA2-IIA (final volume 100 μl) for 30 min on ice. Anti-TOM22 microbeads labeling was then performed as described above and processed on a magnet for mitochondria isolation. Mitochondria were then pelleted and lysed in 1× lysis buffer. Samples were electrophoresed, transferred onto membranes and incubated in 0.2% milk/TBS-Tween solution containing rabbit anti-sPLA2-IIA antibody (1/1000, Cayman Chemical) for 48 h at 4° C. The membrane was washed, treated with Peroxidase-AffiniPure anti-rabbit-IgG (Jackson ImmunoResearch) and reactive proteins were visualized by chemiluminescence (Perkin Elmer).
(In flow cytometry, cells or beads pass a laser one at a time.)

The subject of test [5] is mitochondria. The experiment in a line: Scanning electron microscopy of mitochondria incubated with sPLA2-IIA. Also on record: species or system mouse. The conditions noted are these: scanning electron micrographs. The method, then:
(§3) Samples were fixed with 2.5% glutaraldehyde for at least 24 h then processed for standard dehydration. Briefly, samples were first washed (3×10 min) with sodium cacodylate buffer (0.1 M, pH 7.3) then fixed with osmium tetroxide (1% in sodium cacodylate buffer) for 90 min. Samples were washed again (3×10 min) in sodium cacodylate buffer and subsequently processed for alcohol dehydration steps (50, 70, 95 and 100% EtOH, 10 min each steps). Samples were then dipped in 100% EtOH for 40 and 10 min, and air-dried overnight. Samples were then coated with palladium and observed with a JEOL 6360LV scanning electron microscope (Tokyo, Japan).

Another test has as its system C57BL/6N mice. The experiment in a line: Air pouch model, cytokine production. In kind it is in vivo, mouse. The conditions noted are these: injected into the air pouch of C57BL/6N mice, 4 hours; n=7. On the procedure: Briefly, sterile air was subcutaneous injected on days 0 and 3. Tumor necrosis factor-α (50 ng) was injected into the pouch on day 6. On day 7, mitochondrial membrane hydrolysis products ([…] of 5×10^8 mitochondria treated with sPLA2-IIA), diluent (PBS), sPLA2-IIA, or mitochondria alone were injected in the air pouch. After 4 hours, the air pouch was washed with 1.2 mL PBS. Cytokines were quantified using the BD Cytometric Bead Array System (CBA) (BD Biosciences) by flow cytometry on a BD FACS Canto II and analyzed using FCAP Array Software v3.0.

Test [6] relates to freshly isolated human neutrophil. The experiment in a line: Scanning electron microscopy of human neutrophils with mitochondria and sPLA2-IIA. The test is classed as cell-based. The conditions noted are these: mitochondria with human neutrophils, 30-minute incubation with sPLA2-IIA; n=3. The method, then: as §3
Test [7] relates to mitochondria. The experiment in a line: Mitochondrial DNA release after incubation with sPLA2-IIA (Sytox Green). In kind it is biochemical, mouse. The conditions noted are these: 0.2 mg/mL, 30 minutes at 37° C., n=6. The method, then: Mitochondria were seeded at 5×10^8 mitochondria/mL (Tyrode Buffer, pH 7.4, +5 mM CaCl2) in a flat bottom well plate (Costar, Corning). Human recombinant sPLA2-IIA (5 μg/ml) or diluent (PBS) was added and samples were then incubated for 30 min at 37° C. Nucleic acid stain Sytox® Green (2.5 μM, Invitrogen) was added to the mix and incubated for 10 min at room temperature. Fluorescence was obtained with a Tecan apparatus. To calculate the percentage of mitochondrial DNA released in the milieu, Triton X-100 (0.1% PBS) lysis of an equivalent amount of mitochondria (5×10^8 mitochondria/ml) was performed, to determine the total amount of mitochondrial DNA present per well.

Consider `CCCCCCCCCCCCCC(=O)O[C@@H]1[C@@H](C)[C@@]2(O)[C@@H](C=C(CO)C[C@]3(O)C(=O)C(C)=C[C@@H]23)[C@@H]2C(C)(C)[C@]12OC(C)=O` [PMA, phorbol 12-myristate 13-acetate], for which, in the test with platelets, the “release of extracellular freeMitos, mitoMPs and MPs” value was “trigger the release”.

Take `CCCCC/C=C\C/C=C\C/C=C\C/C=C\CCCC(=O)O` [arachidonic acid]: the “inducing NETosis (hydrolytic products derived from sPLA2-IIA activity)” value with human neutrophils [1] (human neutrophils) is reported as “highly potent”. Turning to `C=C1[C@@H](C)[C@H]2[C@H](Cc3ccccc3)NC(=O)[C@]23OC(=O)/C=C/[C@H](O)CCC[C@@H](C)C/C=C/[C@H]3[C@@H]1O` [cytochalasin B], the “Mitochondrial release (freeMito, mitoMPs, MPs) from thrombin-activated platelets” value in test [2] was “significantly reduced”. Turning to `C=C1[C@@H](C)[C@H]2[C@H](Cc3ccccc3)NC(=O)[C@]23[C@H](OC(C)=O)/C=C/[C@@](C)(O)C(=O)[C@@H](C)C/C=C/[C@H]3[C@@H]1O` [cytochalasin D], the “Mitochondrial release (freeMito, mitoMPs, MPs) from thrombin-activated platelets” value in test [2] was “significantly reduced”.

As for `C[C@H]1C/C=C/[C@H]2[C@@H]3O[C@]3(C)[C@@H](C)[C@H]3[C@H](Cc4ccccc4)NC(=O)[C@]32OC(=O)O/C=C/[C@@](C)(O)C1=O` [cytochalasin E], the “Mitochondrial release (freeMito, mitoMPs, MPs) from thrombin-activated platelets” value in test [2] is on record as “significantly reduced”. As to `C/C1=C/C(=O)O[C@@H]2C[C@@H](CC[C@H](C)/C=C\C=C\CC1)O[C@@](O)([C@@H]1CSC(=O)N1)C2` [latrunculin A], in [2], the “Mitochondrial release (freeMito, mitoMPs, MPs) from thrombin-activated platelets” value is reported as “significantly reduced”. Consider `O=C1NC(=O)/C(=C/c2ccc(C(=O)NC[C@@H]3C[C@@H](SC(c4ccccc4)(c4ccccc4)c4ccccc4)CN3C(=O)c3ccccc3C(=O)c3ccc(F)cc3F)cc2)S1` [pyrrophenone], for which, in the test on human neutrophils [3], the “LTB4 production (5-LO products) by neutrophils” value is on record as “takes place even in presence”. Consider collagen, for which the “release of extracellular freeMitos, mitoMPs and MPs” value in the test with platelets is given as “trigger the release”. The same measure, in the same setting: in the case of thrombin it was “trigger the release”.

B1: sPLA2-IIA: human recombinant secreted phospholipase A2 group IIA (protein, UniProt P14555 21-144, looked up)
Phospholipase A2, membrane …: NLVNFHRMIKLTTGKEAALSYGFYGCHCGVGGRGSPKDATDRCCVTHDCCYKRLEKRGCGTKFLSYKFSNSGSRITCAKQDSCRSQLCECDKAAATCFARNKTTYNKKYQYYSNKHCRGSTPRC
Turning to B1, in the test with mitochondrial membranes, the “release of lysophospholipids and free fatty acids from mitochondria” value is “release of various lysophospholipids and free fatty acids”. The “binding of sPLA2-IIA to mitochondria” value in the test with mitochondria [4] is reported as “binds mitochondria”. Moreover, the mitochondrial structural integrity entry with mitochondria [5] is reported as “severely affects mitochondrial structural integrity”. In addition, in the test on C57BL/6N mice, the “production of IL-1b and IL-6” value was “modest cytokine production”. Moreover, the neutrophil structural change in test [6] is 29.2±2.11%. In addition, in the test on human neutrophils [3], the “LTB4 production (5-LO products) by neutrophils” value is listed as “copious amounts”. Moreover, in the test on human neutrophils [1] (human neutrophils with mitochondria, sPLA2-IIA 0.1 μg/ml, 2 h at 37° C.), the “NET formation by mitochondria” value is recorded as “significantly enhances”. In addition, the mtDNA extrusion result with mitochondria [7] is reported as “amplified”.
